87 compounds from a melting point compilation (Tetko et al.; mined from patent text by program, amines drawn as free bases though some values may be those of a salt) can be followed below.

Molecules are shown by their SMILES.

As for `O[C@H]1c2cc(OCc3ccc4cc(F)ccc4n3)ccc2OC[C@H]1Oc1cccnc1`, the melting point (usually the temperature of the solid-liquid transition) is 163 to 164 °C.
As to `Cc1nc(NC(=O)c2cnn3c(C(F)(F)F)cc(-c4ccc(C(F)(F)F)c(Cl)c4)nc23)sc1S(N)(=O)=O`, the melting point turned out to be 299 °C.
As for `Cc1ccc2c(c1)C(c1ccccc1Cl)C(=O)N2` (configuration not stated), the melting point amounted to 208 °C.
In turn, `CC(Cc1c[nH]c2ccccc12)NC1CCC(c2ccccc2)(N(C)C)CC1` (configuration not stated) gave a melting point of 155 to 162 °C.
Take `OC1(c2ccccn2)CCNCC1`: the melting point was 128 to 132 °C.
The compound `CCCC=C(c1ccccc1N1CCCCC1)C(C(N)=O)c1ccc(C(=O)OCC)cc1` (configuration not stated) returned a melting point of 94 to 97 °C.
Consider `COc1ccc(-c2nc(Sc3ccc(F)cc3F)[nH]c2-c2ccc(OC)cc2)cc1`, for which the melting point was 174 to 176 °C.
As for `Cc1cc(-c2cccc(C#N)c2)c(C(=O)NCCN2CCOCC2)c(C)n1`, the melting point was 158 to 161 °C.
With `CC(Cc1nc(-c2ccccc2)nc2ccccc12)C(=O)N(C)C(C)C` (configuration not stated), the melting point came to 171 °C.
The value for `Cn1c(OC2CCOC2)nn(C(=O)NS(=O)(=O)c2ccccc2Br)c1=O` (configuration not stated) was 191 °C; that for `NC(=O)CC(O)(Cn1cncn1)C(F)(F)C(F)(F)C(F)(F)C(F)(F)F` (configuration not stated) was 145 to 146 °C.
The value for `CCOC(=O)c1c(CN(CC)CC)nc2cc(OC)c(OC)cc2c1-c1ccc(F)cc1` was 102 to 103 °C.
For the compound `COc1cc2ccccc2cc1N(C)C(=O)N1CCN(c2cc(F)cc(F)c2)CC1`, the melting point fell in the range of 115 to 117 °C.
Compound `CC(C)NC(=S)n1ccc2cc(Cl)ccc21` showed a melting point of 135 °C.
In turn, `CCCCCCCCCCc1cnc(-c2ccc3c(c2)C(=O)C(CCCCCCCC)C3)nc1` (configuration not stated) yielded a melting point of 83 °C.
`Cc1cc(O)c2c(c1C)C(=O)CC2` had a melting point of 171 to 173 °C.
In turn, `CN(C)c1cc2c(cc1Cl)NC(=O)CC(c1cccc(-c3csc(CO)n3)c1)=N2` registered a melting point of 176 to 178 °C.
The value for `Nc1c(-c2c[nH]nn2)c(=O)oc2ccccc12` was 265 to 268 °C; that for `CCCCCCCCCCCCCCCCCCNC(=O)OCC1(CNS(=O)(=O)CCCI)CCCO1` (configuration not stated) was 66.5 to 67.5 °C; that for `O=Cc1ccc(OCc2ccccc2)cn1` was 68 to 70 °C.
As to `CCCCCCCCNC(=O)c1cscc1C(=O)O`, the melting point was in the range of 120 to 122 °C.
With `CCOC(=O)c1ccc2cc(Cl)ccn2c1=O`, the melting point lay in the range of 161 to 164 °C.
Turning to `CCOC(=O)CC(=O)CC(O)C=Cc1c(C)c(OCc2ccccc2)c(C)c2c1OC(C)(C)CC2` (configuration not stated), the melting point was in the range of 83 to 83.5 °C.
The figure for `Nc1nn(CCN2CCCCC2)cc1-c1ccccc1` is 96 °C; for `COc1cc(/C=C/S(=O)(=O)CS(=O)(=O)/C=C/c2cc(OC)c(OC)c(OC)c2)cc(OC)c1OC` it is 127 to 129 °C.
As to `CCOCc1nc2c(N)nc3ccccc3c2n1CCCC(C)N(OC)S(C)(=O)=O` (configuration not stated), the melting point lay in the range of 146 to 148 °C.
Take `Nc1ccc(Oc2ccc(O)cc2)cc1`: the melting point lay within 130 to 134 °C.
In turn, `CCN1C(=O)C(O)=C(c2c(C)cc(C)cc2C)C1=O` showed a melting point of 168 °C.
The figure for `Cn1c(=O)n(Cc2cccs2)c(=O)c2cc(C(=O)NCc3ccc4c(c3)OCO4)ccc21` is 224 °C.
The value for `O=C1CC(c2ccccc2)Cc2[nH]c3c(c21)CCCC3` (configuration not stated) was 257 to 259 °C.
Compound `CCCCc1c(C(=O)OCC)sc2ccc([N+](=O)[O-])cc12` came in with a melting point of 92 to 93 °C.
`Cc1c(-c2ccccc2)oc2c(C=O)cccc2c1=O` displayed a melting point of 124 to 126 °C.
The figure for `CCOc1cnc(C(C)(C)OC(=O)Nc2ccc(-c3ncn(-c4ccc(OC(F)(F)F)cc4)n3)cc2)nc1` is 168 to 171 °C; for `O=C(O)CCCC(=O)c1cc(-c2ccccc2)nc2ccccc12` it is 136 °C.
`Oc1ccc(-c2ncc3ncc(Nc4cccnc4)cc3n2)cc1` displayed a melting point of more than 268 °C.
The figure for `Cc1cc(=O)c(-c2ccccc2)c(-c2ccc(S(N)(=O)=O)cc2)o1` is 218 °C.
Take `COC(=O)c1cc(N=C2C=CC(=O)C=C2)c(F)c(-c2ccc(Cl)cc2)n1`: the melting point was in the range of 154 to 156 °C.
As to `CCOC(=O)N1CCN(C2Cc3cc(C)ccc3Sc3ccccc32)CC1` (configuration not stated), the melting point was in the range of 96 to 98 °C.
As for `COCCOc1cc(N(C)S(=O)(=O)c2cccs2)c2[nH]c(C(N)=O)cc2c1`, the melting point lay within 214 to 215 °C.
Regarding `CCc1c(C)cccc1C(=O)NC1CN2CCC1CC2` (racemic), the melting point was determined as 125 °C.
`COC(=O)c1cc(OCCCOc2ccccc2-c2ccccc2)cc(OCCCOc2ccccc2-c2ccccc2)c1`: the melting point was 77 to 79 °C.
`CC(C)(C)OC(=O)NC1CCCCCC=CC2CC2(C(=O)NS(=O)(=O)C2CC2)NC(=O)C2CC(OC(=O)c3cccc(C#N)c3)CN2C1=O` (configuration not stated): the melting point was 151 to 153 °C.
Compound `COc1ccc2cc(C(=O)C(C)OS(C)(=O)=O)ccc2c1` (configuration not stated) returned a melting point of 149 to 151 °C.
For `N#CCCNC(=O)c1cccc(-c2ccc3c(c2)C(c2ccc(Cl)cc2Cl)CC3)c1` (configuration not stated), the melting point fell in the range of 112 to 114 °C.
Compound `O=C(c1cc(=O)c2cc(O)ccc2[nH]1)N1CCC(Cc2ccc(Cl)cc2)CC1` showed a melting point of 194 °C.
Compound `O=C(c1cccs1)c1cnn2c(-c3cccc(-c4nnn[nH]4)c3)ccnc12` gave a melting point of 290 °C.
The value for `N#Cc1cc(N)n(-c2c(Cl)cc(-c3ccc(C(F)(F)F)cc3)cc2Cl)n1` was 195 to 199 °C; that for `Brc1ccccc1CCn1ccccc1=NC(=NC1CCCCC1)NC1CCCCC1` was 125 to 129 °C.
Consider `CNc1c(S(=O)C(F)(F)F)c(C#N)nn1-c1c(Cl)cc(C(F)(F)F)cc1Cl` (configuration not stated), for which the melting point amounted to 227 °C.
On to `C#CCOc1ccc(C(=O)C=Cc2cccnc2)c(O)c1`, for which the melting point is 115 to 117 °C.
Compound `CCCCNC(=O)c1ccc(C(F)(F)F)c(-n2nc(CC)n(Cc3ccc(-c4ccccc4S(=O)(=O)NC(=O)OC(C)(C)C)cc3F)c2=O)c1` showed a melting point of 114 to 116 °C.
The figure for `O=C1CN(c2ccccc2)C(=O)N1C(=O)c1ccc(-c2ccccc2)cc1` is 196 to 198 °C; for `Cc1noc(NS(=O)(=O)c2ccccc2-c2ccc(-c3ncco3)cc2Cn2nccn2)c1C` it is 162 to 168 °C.
Turning to `c1ccc(C(Nc2ccncc2)c2ccccc2)cc1`, the melting point was in the range of 148 to 150 °C.
`CCOc1ccc(NS(=O)(=O)c2cccc3c(N(C)C)cccc23)nn1` displayed a melting point of 194 to 198 °C.
The figure for `CCCC(CCCCNC(=O)c1cc2ccc(C3OC(CO)C(O)C(O)C3O)cc2oc1=O)C(=O)O` (configuration not stated) is 162 °C; for `CCCCCCC(C(=O)O)n1ccc2cc(-c3ccccc3-c3nn[nH]n3)ccc21` (configuration not stated) it is 105 to 115 °C; for `CN(C)C=Nc1[nH]nc(N2CCOCC2)c1C#N` it is 182 to 183 °C.
In turn, `Cc1cc(=O)n2c3c(cc(C(O)(C(F)(F)F)C(F)(F)F)cc13)CCC2` gave a melting point of 295 to 296 °C.
On to `COC(=O)c1ccc2c(c1SCCCl)Cc1ccccc1CO2`, for which the melting point is 100 °C.
The value for `COc1ccc2cc(C=CC(C)=O)ccc2c1` was 114 to 116 °C; that for `CC1CC(=O)N[C@@H]2CCc3cc(Cl)ccc3[C@@H]12` (some centres not stated) was 71.5 to 73 °C.
Consider `COc1ccc(Cn2cnc3c(-c4ccco4)nc(OCc4ccccc4)nc32)cc1`, for which the melting point is 122 °C.
As for `Cc1ccc(N2C(=O)C(O)=C(C(=O)c3ccc(C(C)C)cc3)C2c2ccc(C(C)C)cc2)cn1` (configuration not stated), the melting point lay in the range of 252 to 254 °C.
In the case of `ClC(=NNc1ccc(Br)cc1)c1ccc(Cl)cc1`, the melting point is 142 to 144 °C.
As for `Nc1ccc2c(ccn2-c2ccncc2)c1`, the melting point was 149 to 154 °C.
For `CCOP(=O)(Cc1cc(C)c(O)c(C)c1)OCC`, the melting point was 65 °C.
With `Nc1cccc(-c2cccnc2)n1`, the melting point is 108 °C.
As to `Nc1ccc(S(=O)(=O)Nc2cccc3c(Cl)c[nH]c23)cn1`, the melting point lay within 206 to 207 °C.
The compound `O=C1NCCN1OCc1ccccc1` showed a melting point of 64 to 65 °C.
The value for `CC(=O)N[C@@H](Cc1cscn1)C(=O)O` was 186 °C; that for `CCCc1c(C(=O)C(C)C)c2ccc(C(=O)O)cc2n1Cc1ccccc1F` was 212 to 213 °C.
Regarding `CC1(C)CC(N(CCCCCCN(c2nc(Cl)nc(Cl)n2)C2CC(C)(C)NC(C)(C)C2)c2nc(Cl)nc(Cl)n2)CC(C)(C)N1`, the melting point is 161 to 163 °C.
The value for `CCCC1Sc2ccc(F)cc2C=C1c1ccc2c(c1)NC(=O)CO2` (configuration not stated) was 161 to 162 °C; that for `CCCCCCn1c(=O)c2c(ncn2CCCCC(C)O)n(C)c1=O` (configuration not stated) was 68 to 69 °C.
The figure for `c1ccc(COc2ccc(OCCN3CCN(c4ccccc4)CC3)cc2)cc1` is 116 to 119 °C; for `Cc1ccc2c(c1)C=Cc1cc(C)ccc1C2c1cn(-c2ccnc(N3C[C@H](O)C[C@H]3C(=O)O)n2)c(=O)[nH]c1=O` it is 208 to 210 °C; for `COC(=O)c1ccc(Cl)cc1NC(=O)Cc1cccc(OC)c1` it is 144 to 146 °C.
`CN1CCN(c2nc(N)c3cc(Cl)ccc3n2)CC1` yielded a melting point of 176 to 178 °C.
The value for `O=C1NC(=O)c2c(Br)c(Sc3ccc(Cl)cc3)c(Sc3ccc(Cl)cc3)c(Br)c21` was 310 to 315 °C.
Compound `COc1ccc2ccc(NC(=O)C3CC3)nc2n1` had a melting point of 170 °C.
`CCCCOc1cc(/C=C(\OCC)C(=O)O)ccc1OCCc1ccc(OCC)c(Cl)c1`: the melting point turned out to be 109 °C.
In turn, `Cc1c(C(=O)Nc2ccc(N3CCN(C4CCOCC4)CC3)c(C#N)c2)cnn1-c1ccc(F)c(F)c1` returned a melting point of 235 °C.
The figure for `CC(C)(SN=O)C1COC(=O)N1` (configuration not stated) is 65 °C; for `CCOC(=O)C(C)(C)n1c(=O)c2ccccc2n(CCCCBr)c1=O` it is 113 to 114 °C.
On to `CCC1Cn2c(ncc(C(N)=O)c2=O)-c2ccccc21` (configuration not stated), for which the melting point is 197 to 202 °C.
Regarding `CON=C(OCC(=O)OC)C(Cl)=Cc1cc(-n2ncc(C(F)(F)F)c(C)c2=O)c(F)cc1Cl`, the melting point is 75 to 76 °C.
